Our source for the remaining activity values is publication PMC8645336, “Benchmarking a highly selective USP30 inhibitor for enhancement of mitophagy and pexophagy” (Life Science Alliance, 2021).

One test has as its target T1, USP5 (Homo sapiens, UniProt P45974).
T1 sequence (P45974 1-858): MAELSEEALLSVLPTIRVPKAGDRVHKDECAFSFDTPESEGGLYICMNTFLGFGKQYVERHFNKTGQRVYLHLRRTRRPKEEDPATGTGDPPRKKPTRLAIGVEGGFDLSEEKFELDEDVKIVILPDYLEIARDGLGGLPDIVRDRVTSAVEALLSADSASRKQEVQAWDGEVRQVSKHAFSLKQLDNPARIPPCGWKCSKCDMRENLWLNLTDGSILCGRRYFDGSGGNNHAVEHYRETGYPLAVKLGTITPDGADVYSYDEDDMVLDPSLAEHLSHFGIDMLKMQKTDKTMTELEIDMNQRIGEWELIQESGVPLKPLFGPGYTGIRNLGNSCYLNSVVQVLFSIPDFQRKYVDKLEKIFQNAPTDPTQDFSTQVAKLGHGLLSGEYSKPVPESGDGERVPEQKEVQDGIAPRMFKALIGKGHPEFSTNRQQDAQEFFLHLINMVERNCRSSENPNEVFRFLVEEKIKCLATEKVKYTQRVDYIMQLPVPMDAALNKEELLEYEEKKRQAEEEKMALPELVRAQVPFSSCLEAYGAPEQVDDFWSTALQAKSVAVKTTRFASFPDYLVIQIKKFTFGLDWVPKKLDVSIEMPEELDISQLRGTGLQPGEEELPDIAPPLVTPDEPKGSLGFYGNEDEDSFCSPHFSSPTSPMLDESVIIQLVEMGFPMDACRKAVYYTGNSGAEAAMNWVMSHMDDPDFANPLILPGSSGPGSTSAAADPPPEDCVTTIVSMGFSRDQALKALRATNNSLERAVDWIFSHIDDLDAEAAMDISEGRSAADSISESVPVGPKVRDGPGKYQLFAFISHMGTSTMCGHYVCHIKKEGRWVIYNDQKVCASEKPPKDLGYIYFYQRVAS
In words: biochemical. Set-up: Ubiquigent DUB profiler selectivity panel, remaining enzyme activity as % of control. The settings on record: read-out: % of control remaining. The procedure, abridged:
(§1)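 CMPD-39 selectivity was profiled at 1-100 μM across >40 DUBs. Cellular engagement used 2 h CMPD-39 pretreatment, then HA-Ub-PA probe for 10 min at 37°C, with USP30 band shift on immunoblot. TOMM20 ubiquitylation was blotted in YFP-PRKN hTERT-RPE1 cells after 1 h antimycin A/oligomycin A (1 μM each).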

The target of a further test is T2, OTUD6B (Homo sapiens, UniProt Q8N6M0).
T2 sequence (Q8N6M0 1-293): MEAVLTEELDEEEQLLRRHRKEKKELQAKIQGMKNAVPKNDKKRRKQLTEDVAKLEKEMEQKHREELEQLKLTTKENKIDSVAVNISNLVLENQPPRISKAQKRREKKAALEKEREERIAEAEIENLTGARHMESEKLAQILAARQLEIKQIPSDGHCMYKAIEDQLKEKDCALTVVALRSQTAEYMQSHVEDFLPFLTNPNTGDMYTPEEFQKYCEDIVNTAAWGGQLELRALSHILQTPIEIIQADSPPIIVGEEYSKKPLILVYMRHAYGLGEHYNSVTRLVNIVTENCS
Briefly: biochemical. Set-up: Ubiquigent DUB profiler selectivity panel, remaining enzyme activity as % of control. The settings on record: read-out: % of control remaining. The procedure, abridged:
as §1

SMILES strings stand for the structures.

With `CC(C)(C)NS(=O)(=O)c1ccc(NC(=O)[C@H](Cc2ccccc2)NC(=O)c2ccc(F)cc2)cc1` [compound 39, CMPD-39], at USP5, the remaining activity at 1 µM was 104%, the remaining activity at 10 µM came out at 101% and the remaining activity at 100 µM was found to be 106%. For the same compound, at OTUD6B, the remaining activity at 1 µM came out at 110%, the remaining activity at 10 µM worked out at 100% and the remaining activity at 100 µM is 101%.
